In patent US11655244B2, “Carbazole compounds and methods of use thereof” (GSNO Therapeutics, Inc, priority 2017, dated 2023):
Like-named read-outs stand apart in the source and are kept apart here.

What was measured:
GSNOR enzyme [1] = biological target: T1, GSNOR enzyme (Homo sapiens, UniProt P11766); assay: GSNOR inhibition assay (rate of NADH consumption, 340 nm absorbance); assay type: biochemical
Experimental: The following compounds were also prepared based on the methods described herein, using the appropriate starting materials. Table 2a and Table 2b also provides the % GSNOR inhibition at 20 μM of compounds described herein. […] The buffer was 100 mM phosphate buffer (pH 7.4.) The rate of NADH consumption for each well was determined by ultraviolet spectroscopy. Plates were read on a Molecular Devices Spectra Max UV/Visible Spectrophotometer/plate reader and the change in 340 nm absorbance at 25° C. was recorded for each well at 10 sec intervals over the duration of the recording period (2˜5 minutes). The rate was measured from the linear portion of the curve. Final test compound concentration was 20 μM. The mean % inhibition from 3 test compound wells and 5 control wells was measured as the percentage of the mean no compound+enzyme−the mean no enzyme, no compound control.

GSNOR enzyme [2] = biological target: T1, GSNOR enzyme; assay: as above; assay type: biochemical; details: Table 2b; read-out: IC50 Micromolar
IL-6 = assay: LPS/cytokine assay (mouse inflammation assay), IL-6; assay type: in vivo, CD-1 male mice; details: CD-1 male mice; IP or IV; cytokine typically 6 hrs after LPS
Experimental: Table 2b also includes additional biological data of compounds described herein. The LPS/cytokine Assay was carried out in CD-1 male mice. The assay measured the level of various cytokines, including IL-6, IL-17, and IL-23, after induction by bacterial liposaccharide (LPS). Compounds were dosed by IP or IV routes of administration at varying times before and after LPS and the cytokine concentrations were measured at varying times, typically 6 hrs, after LPS by standard methods using ELISA kits.
BIOLOGICAL TESTING: Compounds 10 and 17 from Table 1 were tested in a mouse inflammation assay. Briefly, CD-1 mice were dosed with compound, 12 hrs before injecting mice I.P. with the potent cytokine inducer, bacterial lipopolysaccharide (LPS). The mice were euthanized 6 hrs after the LPS was injected and their serum prepared by standard methods. The concentration of IL-6 in the serum of each experimental animal was measured using an IL-6 ELISA kit from Enzo. The compounds tested were active.
This LPS/cytokine assay was carried out in healthy mice and measured the level of cytokine IL-6, IL-17, and 23 induction by LPS. Compounds are dosed (either orally (“p.o.”) or intravenously (“i.v.”) at varying times before and after LPS, and the cytokines are measured at varying times after LPS. The effect of the tested compounds (Table 5) on IL-6 release is shown in FIG. 7. The effect of the tested compounds (Table 6) on IL-17 an IL-23 release is shown in FIG. 11 and FIG. 12, respectively.

[3] = tested on: non-alcoholic steatohepatitis (NASH) in male C57BL/6 mice; assay: Non-alcoholic steatohepatitis (NASH) model, Streptozotocin plus 60% kcal fat diet; assay type: in vivo; details: for liver to body weight ratio: disease control 0.066; for decrease of percentage collagen proportion area (CPA), Masson's trichrome staining, liver: vs disease control
Experimental: Timed pregnant mice (n=44) were selected for the study. The delivered pups were subcutaneously injected on post-natal day 2 with 200 μg of Streptozotocin and were allowed to remain with the mother until they reached the weanling age. After weanling, the male pups were selected and fed with 60% kcal fat diet (Research Diet-D12492) for next 6 weeks. All the animals were observed once daily for clinical signs and twice daily for morbidity and mortality.
Mice were dosed with vehicle, Compound 17 (at 3 mg/kg or 10 mg/kg) and 10 mg/kg of reference compound (either Obeticholic acid (OCA) or Elafibranor (ELA, GFT505)) once daily before the start of dark cycle (6:00 PM) from day 0 to 21. Animal body weight measurements were made daily for the complete duration of the experiment. Animals were dosed for 21 days (from week 9 to 12) with the test and reference compounds. Blood glucose was estimated before the treatment start, day 11 and on the termination day. Histopathology analysis including the H&E staining, Masson's trichrome staining and the Oil-red-O (ORO) staining was performed for the liver tissues.

[4] = Table 2b, test compound 20 uM, read-out: % GSNOR Inhibition at 20 uM
[5] = Table 2a, test compound 20 μM, pH 7.4, 25° C., read-out: % Inhibit. at 20 μM

T1 sequence (P11766 whole entry): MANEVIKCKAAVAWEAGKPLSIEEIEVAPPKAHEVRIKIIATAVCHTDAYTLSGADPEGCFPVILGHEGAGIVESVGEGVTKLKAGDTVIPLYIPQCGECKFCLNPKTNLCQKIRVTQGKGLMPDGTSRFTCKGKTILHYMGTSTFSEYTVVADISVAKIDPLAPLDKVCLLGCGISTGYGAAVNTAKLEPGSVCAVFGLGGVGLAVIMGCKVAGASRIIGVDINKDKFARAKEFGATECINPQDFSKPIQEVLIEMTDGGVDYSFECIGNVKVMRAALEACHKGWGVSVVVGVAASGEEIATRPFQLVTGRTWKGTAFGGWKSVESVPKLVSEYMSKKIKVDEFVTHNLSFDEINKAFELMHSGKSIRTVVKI

Which inhibition at 20 µM (GSNOR enzyme [1]; [4]) does the source give for `COc1ccc(-n2c3ccc(-n4ccnc4)cc3c3ccc(CCC(=O)O)cc32)cc1` [Compound 24] here?
Its inhibition at 20 µM is 90%.

For `COc1ccc(-n2c3ccc(-n4ccnc4)cc3c3ccc(CCC(=O)O)cc32)c(C)c1` [Compound 25], which inhibition at 20 µM (GSNOR enzyme [1]; [4]) is on record?
Its inhibition at 20 µM is 92%.

With `N#CCCn1c2ccc(-n3ccnc3)cc2c2ccc(CCC(=O)O)cc21` [Compound 26, 3-(imidazol-1(H)-yl)-7-(2-carboxylethyl)-9(H)-(2-cyanoethyl) carbazole] as the molecule, how does the IC50 (GSNOR enzyme [2]) read?
The IC50 was < 1000 nM.

And the inhibition at 20 µM (GSNOR enzyme [1]; [4])?
Its inhibition at 20 µM is 92.4%.

What about the “LPS/IL6 Lowest tested active” value (IL-6) of the same molecule?
The value was 0.3 mg/kg.

For `NC(=O)CCn1c2ccc(-n3ccnc3)cc2c2cc(F)c(C(=O)O)cc21` [Compound E1, 9-(3-amino-3-oxopropyl)-3-fluoro-6-(1H-imidazol-1-yl)-9H-carbazole-2-carboxylic acid], which inhibition at 20 µM (GSNOR enzyme [1]; [5]) is on record?
Its inhibition at 20 µM is 18%.

With `N#Cc1ccc(-n2c3cc(CNc4nccs4)ccc3c3ccc(C(=O)O)cc32)c([N+](=O)[O-])c1` [Compound G1, 9-(4-cyano-2-nitrophenyl)-7-((thiazol-2-ylamino)methyl)-9H-carbazole-2-carboxylic acid] as the molecule, how does the inhibition at 20 µM (GSNOR enzyme [1]; [5]) read?
The inhibition at 20 µM was 15%.

For `N#Cc1ccc(-n2c3cc(CNc4ncco4)ccc3c3ccc(C(=O)O)cc32)c([N+](=O)[O-])c1` [Compound H1, 9-(4-cyano-2-nitrophenyl)-7-((oxazol-2-ylamino)methyl)-9H-carbazole-2-carboxylic acid], which inhibition at 20 µM (GSNOR enzyme [1]; [5]) is on record?
The inhibition at 20 µM was 0%.

How did the inhibition at 20 µM (GSNOR enzyme [1]; [5]) turn out when `NC(=O)c1ccc(-n2c3cc(CNc4ncco4)ccc3c3ccc(C(=O)O)cc32)c([N+](=O)[O-])c1` [Compound I1, 9-(4-carbamoyl-2-nitrophenyl)-7-((oxazol-2-ylamino)methyl)-9H-carbazole-2-carboxylic acid] was run?
The inhibition at 20 µM was 0%.

With `NC(=O)c1ccc(-n2c3cc(CNc4nccs4)ccc3c3ccc(C(=O)O)cc32)c([N+](=O)[O-])c1` [Compound J1, 9-(4-carbamoyl-2-nitrophenyl)-7-((thiazol-2-ylamino)methyl)-9H-carbazole-2-carboxylic acid] as the molecule, how does the inhibition at 20 µM (GSNOR enzyme [1]; [5]) read?
The inhibition at 20 µM was 9%.

What does the source list for `CSc1ccc(C(=O)/C=C/c2cc(C)c(OC(C)(C)C(=O)O)c(C)c2)cc1` [Elafibranor, reference compound]?
NAS ([3]; 10 mg/kg): 2.67; ORO (Oil-Red-O) steatosis score relative to disease control ([3]; 10 mg/kg): −11%; change of liver to body weight ratio compared with disease control ([3]; 10 mg/kg): +40%; plasma glucose relative to disease control (in words) ([3]; 10 mg/kg once daily): neither OCA nor ELA reduced glucose; body weight, statistical significance ([3]; 10 mg/kg, day 7 and 12 post-treatment): statistically significant (*p<0.05) increase in body weight; weight put on relative to naïve controls at day 21 ([3]; 10 mg/kg): +43%; liver to body weight ratio ([3]; 10 mg/kg): 0.092; decrease of percentage collagen proportion area (CPA), Masson's trichrome staining, liver ([3]; 10 mg/kg): 54%; change in body weight (g), Mean ([3]; Day 1, 10 mg/kg once daily): 0.00 g; change in body weight (g), Mean ([3]; Day 2, 10 mg/kg once daily): 0.70 g; change in body weight (g), Mean ([3]; Day 3, 10 mg/kg once daily): 1.18 g; change in body weight (g), Mean ([3]; Day 4, 10 mg/kg once daily): 0.93 g; change in body weight (g), Mean ([3]; Day 5, 10 mg/kg once daily): 1.42 g; change in body weight (g), Mean ([3]; Day 6, 10 mg/kg once daily): 1.31 g; change in body weight (g), Mean ([3]; Day 7, 10 mg/kg once daily): 1.43 g; change in body weight (g), Mean ([3]; Day 8, 10 mg/kg once daily): 1.49 g; change in body weight (g), Mean ([3]; Day 9, 10 mg/kg once daily): 1.71 g; change in body weight (g), Mean ([3]; Day 10, 10 mg/kg once daily): 1.69 g; change in body weight (g), Mean ([3]; Day 11, 10 mg/kg once daily): 1.47 g; change in body weight (g), Mean ([3]; Day 12, 10 mg/kg once daily): -0.17 g; change in body weight (g), Mean ([3]; Day 13, 10 mg/kg once daily): 1.73 g; change in body weight (g), Mean ([3]; Day 14, 10 mg/kg once daily): 1.96 g; change in body weight (g), Mean ([3]; Day 15, 10 mg/kg once daily): 2.00 g; change in body weight (g), Mean ([3]; Day 16, 10 mg/kg once daily): 1.64 g; change in body weight (g), Mean ([3]; Day 17, 10 mg/kg once daily): 1.82 g; change in body weight (g), Mean ([3]; Day 18, 10 mg/kg once daily): 2.16 g; change in body weight (g), Mean ([3]; Day 19, 10 mg/kg once daily): 2.26 g; change in body weight (g), Mean ([3]; Day 20, 10 mg/kg once daily): 1.88 g; change in body weight (g), Mean ([3]; Day 21, 10 mg/kg once daily): 2.22 g

How did the NAS ([3]; 10 mg/kg) turn out when `CC[C@H]1[C@@H](O)[C@@H]2[C@H](CC[C@]3(C)[C@@H]([C@H](C)CCC(=O)O)CC[C@@H]23)[C@@]2(C)CC[C@@H](O)C[C@@H]12` [Obeticholic acid, reference compound] was run?
Its NAS is 3.20.

And the “ORO (Oil-Red-O) steatosis score relative to disease control” value ([3]; 10 mg/kg)?
The value was −1%.

And the “change of liver to body weight ratio compared with disease control” value ([3]; 10 mg/kg)?
Its value is −11%.

And the “weight put on relative to naïve controls at day 21” value ([3]; 10 mg/kg)?
The value was “+28%”.

And the “liver to body weight ratio” value ([3]; 10 mg/kg)?
Its value is 0.058.

And the “decrease of percentage collagen proportion area (CPA), Masson's trichrome staining, liver” value ([3]; 10 mg/kg)?
The value was 50%.

What about the “change in body weight (g), Mean” value ([3]; Day 1, 10 mg/kg once daily) of the same molecule?
The value was 0.00 g.

And the “change in body weight (g), Mean” value ([3]; Day 2, 10 mg/kg once daily)?
Its value is 0.43 g.

And the “change in body weight (g), Mean” value ([3]; Day 3, 10 mg/kg once daily)?
The value was 0.57 g.

What about the “change in body weight (g), Mean” value ([3]; Day 4, 10 mg/kg once daily) of the same molecule?
The value was 0.43 g.

And the “change in body weight (g), Mean” value ([3]; Day 5, 10 mg/kg once daily)?
Its value is 0.45 g.

And the “change in body weight (g), Mean” value ([3]; Day 6, 10 mg/kg once daily)?
Its value is 0.78 g.

And the “change in body weight (g), Mean” value ([3]; Day 7, 10 mg/kg once daily)?
Its value is 0.58 g.

What about the “change in body weight (g), Mean” value ([3]; Day 8, 10 mg/kg once daily) of the same molecule?
Its value is 0.89 g.

And the “change in body weight (g), Mean” value ([3]; Day 9, 10 mg/kg once daily)?
Its value is 0.85 g.

What about the “change in body weight (g), Mean” value ([3]; Day 10, 10 mg/kg once daily) of the same molecule?
Its value is 1.06 g.

And the “change in body weight (g), Mean” value ([3]; Day 11, 10 mg/kg once daily)?
Its value is 0.78 g.

What about the “change in body weight (g), Mean” value ([3]; Day 12, 10 mg/kg once daily) of the same molecule?
Its value is 0.06 g.

What about the “change in body weight (g), Mean” value ([3]; Day 13, 10 mg/kg once daily) of the same molecule?
Its value is 0.82 g.

And the “change in body weight (g), Mean” value ([3]; Day 14, 10 mg/kg once daily)?
The value was 1.05 g.

What about the “change in body weight (g), Mean” value ([3]; Day 15, 10 mg/kg once daily) of the same molecule?
Its value is 0.54 g.

And the “change in body weight (g), Mean” value ([3]; Day 16, 10 mg/kg once daily)?
The value was 0.82 g.

What about the “change in body weight (g), Mean” value ([3]; Day 17, 10 mg/kg once daily) of the same molecule?
Its value is 1.43 g.

And the “change in body weight (g), Mean” value ([3]; Day 18, 10 mg/kg once daily)?
The value was 1.52 g.

What about the “change in body weight (g), Mean” value ([3]; Day 19, 10 mg/kg once daily) of the same molecule?
The value was 1.81 g.

What about the “change in body weight (g), Mean” value ([3]; Day 20, 10 mg/kg once daily) of the same molecule?
Its value is 1.62 g.

And the “change in body weight (g), Mean” value ([3]; Day 21, 10 mg/kg once daily)?
Its value is 1.98 g.
